Here are results for three compounds from patent US20190388349A1, “NON-TOXIC VEHICLE TO SOLUBILIZE, DELIVER, AND OBTAIN BIOLOGICAL ACTIVITY OF STEROID HORMONES AT CELL, TISSUE, AND ORGAN TARGETS, IN VITRO AND IN VIVO” (Government of the United States as Represented by the …, priority 2017, published 2019).

For assay [1], the system named is MCF-7 breast cancer cells. Kind of assay: Cell death and cell growth in MCF-7 breast cancer cell cultures. The class given is cell-based. As to conditions: 5 nM E2; for cell growth / cell density (microscopic photograph): MCF-7 grown for 5 days, 25 μM androstene hormone, PEG 300 with 5% LIPOFECTAMINE
The procedure: (§1) Hormone dependent, noninvasive, epithelial phenotype (ER/PR positive MCF-7 breast cancer cells) and hormone independent, invasive, mesenchymal phenotype (ER/PR negative MDA-MB-231 breast cancer cell) cell suspensions were acquired and prepared in complete medium (DMEM/F12, 10% FBS, 1% penicillin/streptomycin (Gibco)). Cellular concentration was adjusted to 2×10^5 cells/mL.
(§2) Androstene hormone solutions according to embodiments of the present invention were prepared from a first solution and a second solution. For the first solution, 3.0 mg of β-AED or β-AET was added to warm PEG 300 to prepare 50 mM stock. For the second solution, 10 μL of LIPOFECTAMINE (3:1 DOSPA: DOPE) was introduced to 100 μL of PEG 300, mixed, and incubated in a water bath at 42° C. for 30 min. The first and second solutions were then mixed in a sonicator water bath at 42° C. for 1 hr. The final concentration was 50 mM β-AED (or AET, as used).
(§3) A β-estradiol solution was also prepared by adding 2.7 mg of β-estradiol to 200 μL warmed PEG 300 with LIPOFECTAMINE and then further diluted 1:1000 with PEG-300. The final concentration was 50 μM.
A diluted β-AED (or β-AET) solution was prepared with complete medium at a final concentration of 50 μM (1:1000 dilute of 50 mM). Likewise, a diluted β-E2 solution was prepared with complete medium at a final concentration of 10 nM (1:5000 dilute of 50 μM).
Using a 24-well plate, mixtures of 0.5 mL of cells per well with 0.5 mL of medium diluted hormone vehicle. Cell cultures were maintained at 90% humidity, 7% CO2, and 37° C.

The subject of another assay is 293T cells. The experiment in a line: Biological function (phenotype, mobile cells) in 293T cells. Format: cell-based, human. As to conditions: for mobile cells / mobile elements / processes (photograph): vehicle PEG 300 with LIPOFECTAMINE, 25 μM β-AED, 5 nM E2. The procedure:
A non-toxic vehicle for administration of androstene hormones according to embodiments of the present invention was prepared from a first solution and a second solution. The first solution, comprising liposomal formulation, was placed in PEG 300 to a concentration of 5% and heated in a sonicating water bath to about 45° C. The second solution, comprising a selected hormone (one or more of 5Δ-androsten-3β, 17α-diol, 5Δ-androsten-3β, 17β-diol, or 5Δ-androsten-3β,7β,17β-triol), was placed in PEG 300 and heated in a sonicating water bath to about 45° C. The first and second solutions were then combine and stirred until dissolved.
Biological function was tested in 293T cells, which is a human embryonic cell line transformed with Large T antigen […] SV40. This hypotriploid (polyploid) cell line is particularly useful in such transformation studies and has very distinct phenotypes when grown. All androstene hormone treatment applications were at concentrations of 25 μM.

The test system of assay [2] is MDA-MB-231 breast cancer cell. The experiment in a line: Cell death in MDA-MB-231 breast cancer cell cultures. Format: cell-based. To be noted: 25 μM β-AED, 25 μM β-AET, 5 nM E2; PEG 300 with LIPOFECTAMINE vehicle. Here is the method: as §1, §2, §3
A diluted β-AED (or β-AET) solution was prepared with complete medium at a final concentration of 50 μM (1:1000 dilute of 50 mM). Likewise, a diluted β-E2 solution was prepared with complete medium at a final concentration of 10 nM (1:5000 dilute of 50 μM). […]

Setting [3] is: vehicle PEG 300 only, androstene hormone 25 μM.

Each structure is given as a SMILES string.

Turning to `C[C@]12CC[C@@H]3c4ccc(O)cc4CC[C@H]3[C@@H]1CC[C@@H]2O` [E2, 17β-estradiol], the “MCF7 Cell Death Amount” value in assay [1] (25 μM β-AED, 25 μM β-AET, PEG 300 with LIPOFECTAMINE vehicle) is reported as “Not observed”. For the same compound, the “cell growth / cell density (microscopic photograph)” value (shortened to “cell growth / cell density”) in assay [1] was “thick and similar to the cell growth of FIGS. 14 and 16”. Besides, the “mobile cells / cell processes (photograph)” value in the assay with 293T cells (setting [3]) is “many more cell processes”. In the assay with 293T cells, the “mobile cells / mobile elements / processes (photograph)” value is “many large islands with mobile processes, small islands with mobile process, and mobile cells forming interconnections with other elements”. Besides, the “MDA-MB-231 Cell Death Amount” value in assay [2] is reported as “Not observed”.
For the compound `C[C@]12CC[C@H]3[C@@H](CC=C4C[C@@H](O)CC[C@@]43C)[C@@H]1CC[C@@H]2O` [β-AED, androst-5-ene-3β,17β-diol], the “cell growth / cell density” value in assay [1] is reported as “areas of decreased density”. Besides, in the assay on 293T cells (setting [3]), the “cell islands (photograph)” value is listed as “larger” and the “mobile cells / cell processes (photograph)” value was “significant reduction in mobile cells”. In addition, the “mobile cells / mobile elements / processes (photograph)” value in the assay with 293T cells is reported as “drastic decrease in, or morphological change, in mobile elements”.
Turning to `C[C@]12CC[C@H]3[C@@H]([C@@H](O)C=C4C[C@@H](O)CC[C@@]43C)[C@@H]1CC[C@@H]2O` [β-AET, 5-androstene-3β,7β,17β-triol], in assay [1], the “cell growth / cell density” value was “thick and similar to the cell growth of FIG. 14”.
